Measured values reported in patent publication USRE45916E1, “Intraoperative imaging of renal cortical tumors and cysts” (University of Rochester, priority 2006, dated 2016).
“Also recorded” adds a separate entry of the source. Like-named read-outs stand apart in the source and are kept apart here. Each block holds one compound with its values, some of them ahead of it.

Columns and labels:
[1] = mammals, several months after the treatment, cited from earlier work
[2] = tested on: renal cortical tumors and cysts; test: Clinical trial: intraoperative near infrared fluorescence (NIRF) imaging of the kidney after intravenous ICG in radical or partial nephrectomy patients; format: in vivo, human
[3] = Clinical trial: safety of intravenous ICG in nephrectomy patients; format: in vivo, human; settings: ten patients, ICG intravenously
Experimental: Following Institutional Review Board approval, a clinical trial of the invention was conducted. Ten patients presenting for radical or partial nephrectomy were enrolled in the trial. After the kidney was mobilized (typically, only one of the patient's kidneys is involved in such operations), ˜10 cc (2.5 mg/ml) of ICG was injected intravenously. Shortly after injection, near infrared fluorescence (NIRF) imaging was conducted and recorded using a LUNA™ NIRF system (Novadaq Technologies Inc, Mississauga, Canada).
Microscopy and histological studies were performed on excised tissue. […] Histological examination using hematoxylin and eosin staining confirmed the location of differential ICG fluorescence in tumor and normal renal tissue. All surgical margins were negative: 4 mm (the range of the margin was from 2-10 mm).

[4] = Animal studies: ICG injected into the penis to image nerves, kidney fluorescence observed; format: in vivo; settings: animals
Source text: The present invention stems in part from studies we took in using the near infrared fluorescent dye indocyanine green (“ICG”) to image cavernous nerves of the penis. When abdominal incisions were made, we noted that the kidneys were fluorescent for hours to days after ICG administration, even though ICG is cleared quickly from the circulation. Because we are urologists, we are aware that kidney tumors tend to be hypervascular and develop rich vascular beds that are not uniform. We formed the hypothesis that the vascular beds would tend to impede the flow of ICG out of the tumor. We realized that any difference in admission or retention of fluorescent dye between normal and tumor tissue would result in different amounts of fluorescence, and that these differences could be exploited to detect the presence or absence of tumors in areas of the kidney. We hypothesized that kidney tumors would tend to retain ICG more than areas of the kidney with normal vasculature, and that areas within the kidney that fluoresced when exposed to light of an appropriate excitation frequency would identify the presence of tumors.
Typically, the dye is administered sufficiently before the intended surgery to permit the kidney to take up the dye, but not so long before the surgery that the dye has been cleared by the liver or otherwise eliminated from the body. […]

[5] = tested on: intrinsic brain tumors; settings: nine patients, ICG as intravenous contrast-enhancement agent; cited from earlier work
[6] = cited from earlier work

Structure (SMILES): N=C(N)c1ccc(/C=C/c2ccc(C(=N)N)cc2O)cc1 [Fluorogold]
- neuronal toxicity [1]: low evidence of neuronal toxicity
- neuronal toxicity ([1]; listed as fluorogold): without evidence of neuronal toxicity

- kidney fluorescence 18 hours after injection ([4]; ICG injected into the penis, 18 hours after injection): intense fluorescence
- duration of kidney fluorescence after ICG administration ([4]; seen at abdominal incision): hours to days
Structure (SMILES): CC1(C)C(/C=C/C=C/C=C/C=C2\N(CCCCS(=O)(=O)O)c3ccc4ccccc4c3C2(C)C)=[N+](CCCCS(=O)(=O)[O-])c2ccc3ccccc3c21 [ICG, indocyanine green]
- surgical margins ([2]; partial nephrectomy under NIRF imaging): negative
- fluorescence of complex / hemorrhagic cysts under NIRF imaging ([2]; patients, ICG intravenously): hypo- or non-fluorescent; also recorded: NIRF characteristics of renal cell carcinoma
- fluorescence of normal kidney tissue under NIRF imaging ([2]; patients, ICG intravenously): fluoresced brightly; also recorded: brightly fluorescent
- fluorescence of kidney tumors under NIRF imaging ([2]; patients, ICG intravenously, ~10 cc (2.5 mg/ml), against normal kidney parenchyma): non-fluorescing “black” or hypofluorescent “gray” areas; also recorded: hypo- or non-fluorescent areas; also recorded: hypo-fluorescent or non-fluorescent areas
- fluorescence of benign cysts under NIRF imaging ([2]; patients, ICG intravenously, compared to normal parenchyma): even more fluorescent than did normal tissue; also recorded: increased fluorescence compared to the normal parenchyma
- effects of the dye on post-operative hepatorenal function [3]: No hypersensitivity reactions or effects of the dye on post-operative hepatorenal function were observed
- hypersensitivity reactions [3]: No hypersensitivity reactions
- dynamic optical signals of brain tissue and tumors [5]: differences in the dynamic optical signals among normal brain, low-grade astrocytomas, and malignant astrocytomas
- optical imaging of resection margins in malignant tumors [5]: differences between adjacent normal tissue and remaining tumor tissue
- metabolism ([6]; in the body): not metabolized in the body
- excretion ([6]; in vivo): excreted exclusively by the liver
- reabsorption from the intestine / enterohepatic recirculation ([6]; in vivo): not reabsorbed from the intestine and does not undergo enterohepatic recirculation
- distribution after intravenous injection ([6]; with normal vascular permeability): remains intravascular
